Test results as given in patent publication US20250051762A1, “PLATFORM USING DNA-ENCODED SMALL MOLECULE LIBRARIES AND RNA SELECTION TO DESIGN SMALL MOLECULES THAT TARGET RNA” (University of Florida Research Foundation, Incorporated, priority 2021, published 2025).

Tests used:
mutant pri-miR-27a = experiment: Competitive MST binding assay with unlabeled mutated pri-miR-27a; parameters: species or system human; conditions: two 5′GAG/3′CCC loops mutated to base pairs
Description: To measure the affinity of 9 for the 5′GAG/3′CCC loop in the context of pri-miR-27a, a competitive binding assay was used with a constant concentration of compound (100 nM) and the Cy5-labeled model of pri-miR-27a's Drosha site, and varying concentrations of unlabeled miR-27a precursor as reported by miRBase. (35) That is, the miR-27a precursor competes with the Cy5-labeled model of pri-miR-27a's Drosha site for binding 9. […] Thus, the compounds identified by using DEL-2DCS can bind avidly to biologically relevant RNA targets identified by Inforna.
For competitive binding assays, both WT and mutant pri-miR-27a RNAs were transcribed as previously described (see Table S6 for sequences). (11) The RNA was purified by gel electrophoresis and folded in 1× Binding Buffer at final concentration of 750 nM by heating at 60° C. for 5 min and then slowly cooling to room temperature. […] The resulting data were analyzed by SigmaPlot and fitted by Equation 2 to yield the competitive dissociation constant (Kd competitive).
where F is the concentration of fluorescence-labeled RNA; unbound and bound refers to the thermophoresis signal at completely unbound and bound state of RNA, respectively; c is the concentration of the compound; f (c) is the thermophoresis signal at compound concentration of c; Kd is the dissociation constant. […]

pri-miR-27a = experiment: RT-qPCR of pri- and mature miR-27a in MCF-7 cells; type: cell-based, human; conditions: MCF-7, RT-qPCR
Description: Cell lines. Compounds were tested in MDA-MB-231 TNBC cells (HTB-26, ATCC), LNCaP metastatic prostate cancer cells (gifted from Junli Luo lab), MCF-7 (HTB-22, ATCC) breast cancer cells, HeLa cervical adenocarcinoma cells (CCL-2, ATCC), and MCF-10a, a model of healthy breast epithelial cells (CRL-10317, ATCC).
Cell culture and compound treatment. All cells were maintained at 37° C. with 5% CO2. MDA-MB-231 and LNCaP cells were cultured in RPMI 1640 medium with L-glutamine & 25 mM HEPES (Corning) supplemented with 10% (v/v) fetal bovine serum (FBS; Sigma) and 1× (v/v) Antibiotic-Antimycotic solution (Corning). MCF-7 and HeLa cells were cultured in DMEM medium with 4.5 g/L glucose (Corning), supplemented with 10% FBS, 1× (v/v) Glutagro (Corning), and 1× (v/v) Antibiotic-Antimycotic solution. […]
Analysis of mRNA abundance: Each cell line was grown as a monolayer in 12- or 24-well plates and treated as described in “Cell culture and compound treatment”. […] Relative abundance of mature miRNAs was calculated by normalizing to RNU6, and relative abundance for pri-miRNAs and mRNAs was calculated by normalizing to 18S ribosomal RNA, using the AAC, method. […]

Compound: C#CCN(CC(N)=O)C(=O)C[C@H](Cc1c[nH]c2ccccc12)NC(=O)[C@@H]1C[C@H](NC(=O)Cn2c(=O)[nH]c3ccccc3c2=O)CN1 [Compound 9]
- binding (competitive) (mutant pri-miR-27a): binding was abolished
- dose with significant inhibition of miR-27a processing (pri-miR-27a): 100 nM
